Laboratory results as given in patent US9458170B2, “Compound of camptothecin and preparation and use thereof” (YULIANG LI, priority 2012, dated 2016).
pIC50: −log10 of the molar value.

Key:
Type in all cases: cell-based
[1] = system: human lung cancer A549 cells; assay: Cell Titre Glo luminescent cell viability assay, A549; conditions: 72 h, incubated 3 days, 0.3 nM~10 μM, 0.1% DMSO
Description: (§1) The human lung cancer A549 cells were cultured in DMEM medium (Gibco®) supplemented with 10% fetal bovine serum (Hyclone®), and human colon cancer SW620, HT-29 cells and human prostate cancer PC-3 cells were cultured in RPMI-1640 medium (Gibco®) supplemented with 10% fetal bovine serum (Hyclone®). The cells described above were cultured in 25 cm^2 or 75 cm^2 plastic cell culture flask (Corning®) filled with 95% air and 5% CO2 at 37° C., for 2˜3 passages per week. Cells were seeded in 96 well cell culture plates (Corning®) at a density of 1×10^3 cells/well (A549), 2×10^3 cells/well (SW620 and HT-29), 3×10^3 cells/well (PC-3), 195 μL/well, and cultured at 37° C., under 95% air and 5% CO2. After 24 h, compounds of this disclosure were added. All the compounds (dissolved in 100% DMSO) were serially diluted three times by 100% DMSO starting from 10 mM. 4 μL of the solution of each concentration was added to 96 μL serum free medium, respectively, and 5 μL diluted solution by medium was added to the culture plates seeded with the cancer cells. The final concentration of DMSO in culture medium was 0.1%, and the final concentration of the compound was 0.3 nM˜10 μM. The said cells were incubated at 37° C. for 3 days. 3 Days later, the viabilities of viable cells were measured by luminescent plate reader according to the reaction of ATP and luciferase (Cell Titre Glo® Luminescent Cell Viability Assay, Promega). This method can be used to evaluate effectiveness of the compounds according to their influences on the cell growth. The dose response curves were generated by the obtained data, and IC50 values were calculated with the program Prism.

[2] = system: human colon cancer SW620 cells; assay: Cell Titre Glo luminescent cell viability assay, SW620; conditions: SW-620, 72 h, incubated 3 days, 0.3 nM~10 μM, 0.1% DMSO
Description: as §1

[3] = system: human prostate cancer PC-3 cells; assay: Cell Titre Glo luminescent cell viability assay, PC-3; conditions: 72 h, incubated 3 days, 0.3 nM~10 μM, 0.1% DMSO
Description: as §1

[4] = system: human colon cancer HT-29 cells; assay: Cell Titre Glo luminescent cell viability assay, HT-29; conditions: 72 h, incubated 3 days, 0.3 nM~10 μM, 0.1% DMSO
Description: as §1

`CC[C@@]1(O)C(=O)OCc2c1cc1n(c2=O)Cc2cc3ccc(OC)c(O)c3nc2-1` [Example 10, (S)-4-ethyl-4,7-dihydroxy-8-methoxy-1H-pyrano[3′,4′:6,7]indolizino[1,2-b]quinoline-3,14(4H,12H)-dione] was tested, and the pIC50 [1] was over 6.30, the pIC50 [2] was over 7.00 and the pIC50 [3] was over 6.30. It also gave a pIC50 [4] of over 6.30.
Work on `CC[C@@]1(O)C(=O)OCc2c1cc1n(c2=O)Cc2cc3c(N(C)C)nccc3nc2-1` [Example 4, (S)-1-(dimethylamino)-7-ethyl-7-hydroxy-7H-pyrano[3′,4′:6,7]indolizino[1,2-b][1,6]naphthyridine-8,11(10H,13H)-dione] yielded a pIC50 [1] of over 7.00, a pIC50 [2] of over 7.00 and a pIC50 [3] of over 6.30. It also gave a pIC50 [4] of under 6.00.
Work on `CC[C@@]1(O)C(=O)OCc2c1cc1n(c2=O)Cc2cc3nc(OC)ccc3nc2-1` [Example 5, (S)-7-ethyl-7-hydroxy-2-methoxy-7H-pyrano[3′,4′:6,7]indolizino[1,2-b][1,5]naphthyridine-8,11(10H,13H)-dione] yielded a pIC50 [1] of over 7.00, a pIC50 [2] of over 7.00 and a pIC50 [3] of over 6.30. The pIC50 [4] was over 6.30.
`CC[C@@]1(O)C(=O)OCc2c1cc1n(c2=O)Cc2cc3cc(OC)c(F)cc3nc2-1` [Example 9, (S)-4-ethyl-8-fluoro-4-hydroxy-9-methoxy-1H-pyrano[3′,4′:6,7]indolizino[1,2-b]quinoline-3,14(4H,12H)-dione] was tested, and the pIC50 [1] was over 7.00, the pIC50 [2] was over 7.00 and the pIC50 [3] was over 7.00. It also gave a pIC50 [4] of over 7.00.
`CC[C@@]1(O)C(=O)OCc2c1cc1n(c2=O)Cc2c-1nc1cc(F)c(OC)cc1c2C` [Example 12, (S)-4-ethyl-8-fluoro-4-hydroxy-9-methoxy-11-methyl-1H-pyrano[3′,4′:6,7]indolizino[1,2-b]quinoline-3,14(4H,12H)-dione] showed a pIC50 [1] of over 7.00, a pIC50 [2] of over 7.00 and a pIC50 [3] of over 7.00. For the same compound, the pIC50 [4] was over 7.00.
Work on `CC[C@@]1(O)C(=O)OCc2c1cc1n(c2=O)Cc2cc3c(OC)nccc3nc2-1` [Example 2, (S)-7-ethyl-7-hydroxy-1-methoxy-7H-pyrano[3′,4′:6,7]indolizino[1,2-b][1,6]naphthyridine-8,11(10H,13H)-dione] yielded a pIC50 [1] of under 6.00, a pIC50 [2] of over 6.30 and a pIC50 [3] of under 6.00. For the same compound, the pIC50 [4] was over 6.00.
Work on `CC[C@@]1(O)C(=O)OCc2c1cc1n(c2=O)Cc2cc3cc(O)c(F)cc3nc2-1` [Example 8, (S)-4-ethyl-8-fluoro-4,9-dihydroxy-1H-pyrano[3′,4′:6,7]indolizino[1,2-b]quinoline-3,14(4H,12H)-dione] yielded a pIC50 [1] of over 7.00, a pIC50 [2] of over 7.00 and a pIC50 [3] of over 7.00. For the same compound, the pIC50 [4] was over 7.00.
In the case of `CC[C@@]1(O)C(=O)OCc2c1cc1n(c2=O)Cc2cc3cc(OC)c(O)cc3nc2-1` [Example 7, (S)-4-ethyl-4,8-dihydroxy-9-methoxy-1H-pyrano[3′,4′:6,7]indolizino[1,2-b]quinoline-3,14(4H,12H)-dione], the pIC50 [1] was over 7.00, the pIC50 [2] was over 7.00 and the pIC50 [3] was over 7.00. The pIC50 [4] was over 7.00.
`CC[C@@]1(O)C(=O)OCc2c1cc1n(c2=O)Cc2cc3cc4c(cc3nc2-1)CCO4` [Example 6, (S)-7-ethyl-7-hydroxy-10,13-dihydro-2H-furo[2,3-g]pyrano[3′,4′:6,7]indolizino [1,2-b]quinoline-8,11(3H,7H)-dione] was tested, and the pIC50 [1] was under 6.00, the pIC50 [2] was over 6.30 and the pIC50 [3] was under 6.00. The pIC50 [4] was over 6.00.
In the case of `CC[C@@]1(O)C(=O)OCc2c1cc1n(c2=O)Cc2cc3cc(OC)ncc3nc2-1` [Example 1, (S)-4-ethyl-4-hydroxy-9-methoxy-1H-pyrano[3′,4′:6,7]indolizino[1,2-b][1,7]naphthyridine-3,14(4H,12H)-dione], the pIC50 [1] was over 7.00, the pIC50 [2] was over 7.00 and the pIC50 [3] was over 6.30. It also gave a pIC50 [4] of over 7.00.
In the case of `CC[C@@]1(O)C(=O)OCc2c1cc1n(c2=O)Cc2c-1nc1cc(F)c(OC)cc1c2N` [Example 11, (S)-11-amino-4-ethyl-8-fluoro-4-hydroxy-9-methoxy-1H-pyrano[3′,4′:6,7]indolizino[1,2-b]quinoline-3,14(4H,12H)-dione], the pIC50 [1] was over 7.00, the pIC50 [2] was over 7.00 and the pIC50 [3] was over 7.00. The pIC50 [4] was over 6.30.
For `CC[C@@]1(O)C(=O)OCc2c1cc1n(c2=O)Cc2cc3c(O)nccc3nc2-1` [Example 3, (S)-7-ethyl-1,7-dihydroxy-7H-pyrano[3′,4′:6,7]indolizino[1,2-b][1,6]naphthyridine-8,11(10H,13H)-dione], the pIC50 [1] was over 6.30, the pIC50 [2] was over 6.30 and the pIC50 [3] was under 6.00. It also gave a pIC50 [4] of over 6.00.
